Laboratory results as given in the supplement of paper PMC8612539.
≈ marks a conversion by molar mass, not a printed value.

Test system: Histophilus somni
Assay: minimum inhibitory concentration (MIC)
Protocol: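 Broth microdilution MIC (Sensititre BOPO7F bovine plate, CLSI methods) of 19 antimicrobials against field isolates of P. multocida, M. haemolytica, H. somni (deep nasopharyngeal swabs) and E. coli, Enterococcus spp. (rectal swabs) from weaned dairy heifers. Incubation 16-24 h at 35 C. MIC is the lowest concentration preventing visible growth. Values with <= or > lie at the tested range limits. Trimethoprim-sulfamethoxazole is given as the trimethoprim component of a 1:19 mixture.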

CCN1CCN(c2cc3c(cc2F)c(=O)c(C(=O)O)cn3C2CC2)CC1 [Enrofloxacin]
Settings	minimum inhibitory concentration [µg/mL]
isolate (source animal id): 3	≤ 0.12
isolate (source animal id): 4	≤ 0.12
isolate (source animal id): 7	≤ 0.12
isolate (source animal id): 14	≤ 0.12
isolate (source animal id): 15	≤ 0.12
isolate (source animal id): 17	≤ 0.12
isolate (source animal id): 18	≤ 0.12
isolate (source animal id): 20	≤ 0.12
isolate (source animal id): 23	≤ 0.12
isolate (source animal id): 45	≤ 0.12
isolate (source animal id): 53	≤ 0.12
isolate (source animal id): 83	≤ 0.12
isolate (source animal id): 88	≤ 0.12
isolate (source animal id): 92	≤ 0.12
isolate (source animal id): 93	≤ 0.12
isolate (source animal id): 99	≤ 0.12
isolate (source animal id): 100	≤ 0.12
isolate (source animal id): 105	≤ 0.12
isolate (source animal id): 107	≤ 0.12
isolate (source animal id): 108	≤ 0.12
isolate (source animal id): 109	≤ 0.12
isolate (source animal id): 110	≤ 0.12
isolate (source animal id): 117	≤ 0.12
isolate (source animal id): 121	≤ 0.12
isolate (source animal id): 123	≤ 0.12
isolate (source animal id): 124	≤ 0.12
isolate (source animal id): 127	≤ 0.12
isolate (source animal id): 128	≤ 0.12
isolate (source animal id): 130	≤ 0.12
isolate (source animal id): 132	≤ 0.12
isolate (source animal id): 135	≤ 0.12
isolate (source animal id): 140	≤ 0.12
isolate (source animal id): 141	≤ 0.12
isolate (source animal id): 142	≤ 0.12
isolate (source animal id): 144	≤ 0.12
isolate (source animal id): 146	≤ 0.12
isolate (source animal id): 147	≤ 0.12
isolate (source animal id): 151	≤ 0.12
isolate (source animal id): 153	≤ 0.12
isolate (source animal id): 154	≤ 0.12
isolate (source animal id): 156	≤ 0.12
isolate (source animal id): 157	≤ 0.12
isolate (source animal id): 176	≤ 0.12
isolate (source animal id): 183	≤ 0.12
isolate (source animal id): 186	≤ 0.12
isolate (source animal id): 196	≤ 0.12
isolate (source animal id): 198	≤ 0.12
isolate (source animal id): 200	≤ 0.12
isolate (source animal id): 206	≤ 0.12
isolate (source animal id): 208	≤ 0.12
isolate (source animal id): 210	≤ 0.12
isolate (source animal id): 212	≤ 0.12
isolate (source animal id): 215	≤ 0.12
isolate (source animal id): 216	≤ 0.12
isolate (source animal id): 218	≤ 0.12
isolate (source animal id): 219	≤ 0.12
isolate (source animal id): 224	≤ 0.12
isolate (source animal id): 228	≤ 0.12
isolate (source animal id): 230	≤ 0.12
isolate (source animal id): 233	≤ 0.12
isolate (source animal id): 238	≤ 0.12
isolate (source animal id): 239	≤ 0.12
isolate (source animal id): 241	≤ 0.12
isolate (source animal id): 242	≤ 0.12
isolate (source animal id): 243	≤ 0.12
isolate (source animal id): 245	≤ 0.12
isolate (source animal id): 246	≤ 0.12
isolate (source animal id): 247	≤ 0.12
isolate (source animal id): 248	≤ 0.12
isolate (source animal id): 250	≤ 0.12
isolate (source animal id): 251	≤ 0.12
isolate (source animal id): 252	≤ 0.12
isolate (source animal id): 254	≤ 0.12
isolate (source animal id): 258	≤ 0.12
isolate (source animal id): 259	≤ 0.12
isolate (source animal id): 262	≤ 0.12
isolate (source animal id): 264	≤ 0.12
isolate (source animal id): 265	≤ 0.12
isolate (source animal id): 266	≤ 0.12
isolate (source animal id): 267	≤ 0.12
isolate (source animal id): 269	≤ 0.12
isolate (source animal id): 271	≤ 0.12
isolate (source animal id): 272	≤ 0.12
isolate (source animal id): 274	≤ 0.12
isolate (source animal id): 276	≤ 0.12
isolate (source animal id): 278	≤ 0.12
isolate (source animal id): 280	≤ 0.12
isolate (source animal id): 281	≤ 0.12
isolate (source animal id): 283	≤ 0.12
isolate (source animal id): 288	≤ 0.12
isolate (source animal id): 291	≤ 0.12
isolate (source animal id): 292	≤ 0.12
isolate (source animal id): 296	≤ 0.12
isolate (source animal id): 306	≤ 0.12
isolate (source animal id): 336	≤ 0.12
isolate (source animal id): 337	≤ 0.12
isolate (source animal id): 341	≤ 0.12

CC[C@H]1OC(=O)C[C@@H](O)[C@H](C)[C@@H](O[C@@H]2O[C@H](C)[C@@H](O)[C@H](N(C)C)[C@H]2O)[C@@H](CCN2CCCCC2)C[C@@H](C)C(=O)/C=C/C(C)=C/[C@@H]1CN1CCCCC1 [Tildipirosin]
Settings	minimum inhibitory concentration [µg/mL]
isolate (source animal id): 3	≤ 1
isolate (source animal id): 4	2 (≈ 2.72 µM)
isolate (source animal id): 7	≤ 1
isolate (source animal id): 14	≤ 1
isolate (source animal id): 15	4 (≈ 5.45 µM)
isolate (source animal id): 17	≤ 1
isolate (source animal id): 18	≤ 1
isolate (source animal id): 20	≤ 1
isolate (source animal id): 23	2 (≈ 2.72 µM)
isolate (source animal id): 45	4 (≈ 5.45 µM)
isolate (source animal id): 53	4 (≈ 5.45 µM)
isolate (source animal id): 83	2 (≈ 2.72 µM)
isolate (source animal id): 88	2 (≈ 2.72 µM)
isolate (source animal id): 92	4 (≈ 5.45 µM)
isolate (source animal id): 93	≤ 1
isolate (source animal id): 99	2 (≈ 2.72 µM)
isolate (source animal id): 100	4 (≈ 5.45 µM)
isolate (source animal id): 105	≤ 1
isolate (source animal id): 107	2 (≈ 2.72 µM)
isolate (source animal id): 108	4 (≈ 5.45 µM)
isolate (source animal id): 109	4 (≈ 5.45 µM)
isolate (source animal id): 110	4 (≈ 5.45 µM)
isolate (source animal id): 117	≤ 1
isolate (source animal id): 121	≤ 1
isolate (source animal id): 123	2 (≈ 2.72 µM)
isolate (source animal id): 124	2 (≈ 2.72 µM)
isolate (source animal id): 127	≤ 1
isolate (source animal id): 128	2 (≈ 2.72 µM)
isolate (source animal id): 130	2 (≈ 2.72 µM)
isolate (source animal id): 132	4 (≈ 5.45 µM)
isolate (source animal id): 135	2 (≈ 2.72 µM)
isolate (source animal id): 140	2 (≈ 2.72 µM)
isolate (source animal id): 141	2 (≈ 2.72 µM)
isolate (source animal id): 142	> 16
isolate (source animal id): 144	4 (≈ 5.45 µM)
isolate (source animal id): 146	4 (≈ 5.45 µM)
isolate (source animal id): 147	> 16
isolate (source animal id): 151	2 (≈ 2.72 µM)
isolate (source animal id): 153	8 (≈ 10.9 µM)
isolate (source animal id): 154	> 16
isolate (source animal id): 156	> 16
isolate (source animal id): 157	8 (≈ 10.9 µM)
isolate (source animal id): 176	2 (≈ 2.72 µM)
isolate (source animal id): 183	2 (≈ 2.72 µM)
isolate (source animal id): 186	4 (≈ 5.45 µM)
isolate (source animal id): 196	4 (≈ 5.45 µM)
isolate (source animal id): 198	4 (≈ 5.45 µM)
isolate (source animal id): 200	8 (≈ 10.9 µM)
isolate (source animal id): 206	8 (≈ 10.9 µM)
isolate (source animal id): 208	8 (≈ 10.9 µM)
isolate (source animal id): 210	2 (≈ 2.72 µM)
isolate (source animal id): 212	≤ 1
isolate (source animal id): 215	4 (≈ 5.45 µM)
isolate (source animal id): 216	8 (≈ 10.9 µM)
isolate (source animal id): 218	4 (≈ 5.45 µM)
isolate (source animal id): 219	8 (≈ 10.9 µM)
isolate (source animal id): 224	8 (≈ 10.9 µM)
isolate (source animal id): 228	4 (≈ 5.45 µM)
isolate (source animal id): 230	≤ 1
isolate (source animal id): 233	≤ 1
isolate (source animal id): 238	≤ 1
isolate (source animal id): 239	2 (≈ 2.72 µM)
isolate (source animal id): 241	2 (≈ 2.72 µM)
isolate (source animal id): 242	2 (≈ 2.72 µM)
isolate (source animal id): 243	≤ 1
isolate (source animal id): 245	≤ 1
isolate (source animal id): 246	4 (≈ 5.45 µM)
isolate (source animal id): 247	2 (≈ 2.72 µM)
isolate (source animal id): 248	≤ 1
isolate (source animal id): 250	2 (≈ 2.72 µM)
isolate (source animal id): 251	4 (≈ 5.45 µM)
isolate (source animal id): 252	4 (≈ 5.45 µM)
isolate (source animal id): 254	4 (≈ 5.45 µM)
isolate (source animal id): 258	2 (≈ 2.72 µM)
isolate (source animal id): 259	2 (≈ 2.72 µM)
isolate (source animal id): 262	≤ 1
isolate (source animal id): 264	≤ 1
isolate (source animal id): 265	2 (≈ 2.72 µM)
isolate (source animal id): 266	2 (≈ 2.72 µM)
isolate (source animal id): 267	2 (≈ 2.72 µM)
isolate (source animal id): 269	2 (≈ 2.72 µM)
isolate (source animal id): 271	2 (≈ 2.72 µM)
isolate (source animal id): 272	≤ 1
isolate (source animal id): 274	≤ 1
isolate (source animal id): 276	≤ 1
isolate (source animal id): 278	2 (≈ 2.72 µM)
isolate (source animal id): 280	≤ 1
isolate (source animal id): 281	4 (≈ 5.45 µM)
isolate (source animal id): 283	2 (≈ 2.72 µM)
isolate (source animal id): 288	4 (≈ 5.45 µM)
isolate (source animal id): 291	2 (≈ 2.72 µM)
isolate (source animal id): 292	4 (≈ 5.45 µM)
isolate (source animal id): 296	2 (≈ 2.72 µM)
isolate (source animal id): 306	8 (≈ 10.9 µM)
isolate (source animal id): 336	8 (≈ 10.9 µM)
isolate (source animal id): 337	8 (≈ 10.9 µM)
isolate (source animal id): 341	4 (≈ 5.45 µM)
